These molecules were tested against Protein kinase C (PKC) (Homo sapiens) (UniProt O94806+P41743+P17252+P05129+Q05655+P05771+Q05513+Q02156+P24723+Q15139+Q04759) (assay: Activation of partially purified HeLa cell protein kinase C, 32P incorporation into calf thymus histone(III-S).).
Molecule `CC(C)[C@H]1C(=O)N[C@H](CO)Cc2c[nH]c3cccc(c23)N1C` has an Activity (pM min-1 (mg of protein)-1) of 454. In the case of `CC(C)=CCCCc1ccc2c3c(c[nH]c13)C[C@@H](CO)NC(=O)[C@H](C(C)C)N2C`, the Activity (pM min-1 (mg of protein)-1) is reported as 763. `CC(C)=CCCCc1ccc2c3c(c[nH]c13)C[C@H](CO)NC(=O)[C@H](C(C)C)N2C` was tested, and the Activity (pM min-1 (mg of protein)-1) was 415. Work on `CC(C)[C@H]1C(=O)N[C@H](CO)Cc2c[nH]c3c(CCCCO)ccc(c23)N1C` yielded an Activity (pM min-1 (mg of protein)-1) of 256. Work on `CC(C)[C@H]1C(=O)N[C@@H](CO)Cc2c[nH]c3c(CCCCO)ccc(c23)N1C` yielded an Activity (pM min-1 (mg of protein)-1) of 163. Molecule `CCCCCCc1ccc2c3c(c[nH]c13)C[C@@H](CO)NC(=O)[C@H](C(C)C)N2C` has an Activity (pM min-1 (mg of protein)-1) of 606. Molecule `CC(C)[C@H]1C(=O)N[C@@H](CO)Cc2c[nH]c3c(CCCCO[Si](C)(C)C(C)(C)C)ccc(c23)N1C` has an Activity (pM min-1 (mg of protein)-1) of 403. Work on `CCCCCCCCCCCCCC(=O)O[C@@H]1[C@@H](C)[C@@]2(O)[C@@H](C=C(CO)C[C@]3(O)C(=O)C(C)=C[C@@H]23)[C@@H]2C(C)(C)[C@]12OC(C)=O` yielded an Activity (pM min-1 (mg of protein)-1) of 899. For `CC(C)[C@H]1C(=O)N[C@H](CO)Cc2c[nH]c3c(CCCCO[Si](C)(C)C(C)(C)C)ccc(c23)N1C`, the Activity (pM min-1 (mg of protein)-1) was 703.
